In patent publication US8748436B2, “Carboxylic acid derivatives having a 2,5,7-substituted oxazolopyrimidine ring” (Sanofi, priority 2010, dated 2014):

The molecules below were run against T1, human Edg-1 receptor (Homo sapiens, UniProt P21453) (assay: GTP-γ-S assay using human Edg-1 receptors (scintillation proximity assay, CHO Flp-In cell membrane preparation)). Details: test compound at 10 μM; high control 10 μM S1P regarded as 100% activation; [35S]GTP-γ-S binding, triplicate.
T1 construct: FLAG (N); expressed in transfected cells; membrane preparation
T1 sequence (P21453 whole entry): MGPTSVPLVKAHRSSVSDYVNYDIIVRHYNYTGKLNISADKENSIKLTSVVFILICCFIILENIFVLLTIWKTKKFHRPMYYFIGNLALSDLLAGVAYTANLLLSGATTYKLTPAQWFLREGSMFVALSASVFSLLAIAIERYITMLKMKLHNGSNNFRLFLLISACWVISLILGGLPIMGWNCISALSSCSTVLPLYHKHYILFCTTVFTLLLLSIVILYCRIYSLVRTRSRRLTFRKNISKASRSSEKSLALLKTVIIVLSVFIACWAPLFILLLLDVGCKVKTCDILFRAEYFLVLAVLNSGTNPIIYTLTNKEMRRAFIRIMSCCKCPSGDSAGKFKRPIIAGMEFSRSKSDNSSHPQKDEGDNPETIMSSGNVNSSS
Assay type: biochemical
Excerpt: A) GTP-γ-S Assay Using Human Edg-1 Receptors
In order to determine the Edg-1 receptor activation by the compounds of the invention, a GTP-γ-S (guanosine 5′-[thio]triphosphate) assay for G-protein coupled receptor binding based on the scintillation proximity assay principle was used, employing a cell membrane preparation from a CHO Flp-In cell line which constitutively overexpresses the human Edg-1 receptor.
The Flp-In™ expression system (Invitrogen, cat. no. K6010-01) allows the generation of stable mammalian cell lines into which the gene of interest has been integrated through homologous recombination at a specific genomic location called Flp Recombination Target (FRT) site by means of a Flp recombinase encoded by the pOG44 expression plasmid. The integration of the pcDNA5/FRT expression construct into the Flp-In host cell line genome results in the transcription of the gene of interest. The stably transfected cells become hygromycin-resistant.
One day prior to transfection, 200 000 Flp-In-CHO cells were seeded in Ham F-12 medium (Invitrogen, cat. no. 31765) supplemented with 10% fetal calf serum (FCS; Perbio Science, cat. no. SH30068.03) in a 6-well plate and incubated at 37° C./5% CO2 overnight. Using the FuGENE® 6 transfection reagent (Roche, cat. no. 11988387001), cells were cotransfected with the Flp recombinase expression plasmid pOG44 and a modified plasmid additionally containing the edg-1 gene (accession no. NM_001400) termed as pcDNA5-FRT-TO_nFLAG_DEST-EDG-1 with a 9:1 ratio. To obtain the modified pcDNA5-FRT-TO_nFLAG_DEST plasmid, the Invitrogen plasmid pcDNA5/FRT/TO (Invitrogen, cat. no. V6520-20) was adapted to the Gateway® (Invitrogen) cloning system by inserting a Gateway cassette containing attR recombination sites flanking a ccdB gene and a chloramphenicol-resistance gene (Gateway conversion system, Invitrogen, cat. no. 11828-029). In addition a FLAG tag epitope was added before the 5′ att recombination site to allow recombinant expression of N-terminally FLAG-tagged proteins.
For the transfection of one well, 1.08 μg of pOG44 and 0.12 μg of pcDNA5-FRT-TO_nFLAG_DEST-EDG-1 were mixed to 100 μl of serum-free Ham F-12 medium containing 6 μl of FuGENE® 6 transfection reagent. After 20 min of incubation, the transfection reagent/DNA complex was distributed dropwise on the cells. The cells were incubated for 24 h at 37° C. Then the cells from 3 wells were transferred to a T75 flask (Greiner Cellstar®, cat. no. 658175) containing Ham F-12 medium supplemented with 10% of FCS but without antibiotic and were incubated another 24 h. 48 h after transfection, the medium was replaced by selection medium (Ham F-12 supplemented with 10% of FCS and 300 μg/ml of hygromycin B (Invitrogen, cat. no. 10687-010)). The medium was exchanged every 2 to 3 days until a resistant population of cells had grown. […] After 2 weeks of selection, the cells were transferred into T175 flasks (Greiner Cellstar®, cat. no. 660175) and cultivated for batch production. Cells were harvested from the culture flasks by short treatment (2 to 5 min) with Accutase (PAA, cat. no. L11-007), resuspended in selection medium (see above) and centrifuged at 200×g for 5 min. The cells were resuspended in a mixture of 90% of FCS and 10% of dimethylsulfoxide and stored frozen in liquid nitrogen.
A membrane preparation was obtained by standard methods from the afore-described CHO Flp-In cell line constitutively overexpressing the human Edg-1 receptor. Briefly, the cryopreserved cells were taken in culture and grown until confluency in T175 cell culture flasks (Becton Dickinson, cat. no. 35 5001). […]

For `CCCOc1nc(Oc2ccc(F)cc2)nc2oc(-c3cc(C)c(OCC(=O)O)c(C)c3)nc12` [Example 35, {4-[5-(4-fiuorophenoxy)-7-propoxy-oxazolo[5,4-d]pyrimidin-2-yl]-2,6-dimethylphenoxy}-acetic acid], which “% Activation (Edg-1 receptor activation in percent of the activation by 10 μM S1P)” value is on record?
The value was 79%.

Same assay, conditions: test compound at 10 μM; high control 10 μM S1P regarded as 100% activation; [35S]GTP-γ-S binding, triplicate; read-out: % Activation (Edg-1 receptor activation in percent of the activation by 10 μM S1P)

For `CCCOc1nc(Oc2cc(C(F)(F)F)ccc2F)nc2oc(-c3cc(C)c(OCC(=O)O)c(C)c3)nc12` [Example 73, {4-[5-(2-fluoro-5-trifluoromethylphenoxy)-7-propoxy-oxazolo[5,4-d]pyrimidin-2-yl]-2,6-dimethylphenoxy}-acetic acid], which activation at 10 µM is on record?
Its activation at 10 µM is 59%.

With `CCCOc1nc(Oc2cccc(C(F)(F)F)c2)nc2oc(-c3cc(C)c(OCC(=O)O)c(C)c3)nc12` [Example 67, {2,6-dimethyl-4-[7-propoxy-5-(3-trifluoromethylphenoxy)-oxazolo[5,4-d]pyrimidin-2-yl]-phenoxy}-acetic acid] as the molecule, how does the activation at 10 µM read?
The activation at 10 µM was 82%.

Which activation at 10 µM does the source give for `CCCOc1nc(Oc2cc(F)cc(Cl)c2)nc2oc(-c3cc(C)c(OCC(=O)O)c(C)c3)nc12` [Example 60, {4-[5-(3-chloro-5-fluorophenoxy)-7-propoxy-oxazolo[5,4-d]pyrimidin-2-yl]-2,6-dimethyl-phenoxy}-acetic acid] here?
Its activation at 10 µM is 59%.

With `CCCOc1nc(Oc2cc(C)cc(F)c2)nc2oc(-c3cc(C)c(OCC(=O)O)c(C)c3)nc12` [Example 42, {4-[5-(3-fluoro-5-methylphenoxy)-7-propoxy-oxazolo[5,4-d]pyrimidin-2-yl]-2,6-dimethyl-phenoxy}-acetic acid] as the molecule, how does the activation at 10 µM read?
The activation at 10 µM was 66%.

With `CCCOc1nc(Oc2cccc(OC)c2)nc2oc(-c3cc(C)c(OCC(=O)O)c(C)c3)nc12` [Example 41, {4-[5-(3-methoxyphenoxy)-7-propoxy-oxazolo[5,4-d]pyrimidin-2-yl]-2,6-dimethylphenoxy}-acetic acid] as the molecule, how does the activation at 10 µM read?
The activation at 10 µM was 73%.

`CCCOc1nc(OC(C)C(F)(F)F)nc2oc(-c3cc(C)c(OCC(=O)O)c(C)c3)nc12` (stereo not drawn) [Example 24, {2,6-dimethyl-4-[7-propoxy-5-(2,2,2-trifluoro-1-methyl-ethoxy)-oxazolo[5,4-d]pyrimidin-2-yl]-phenoxy}-acetic acid] was tested. Which activation at 10 µM did it give?
The activation at 10 µM was 85%.

`CCOc1nc(Oc2cc(F)ccc2F)nc2oc(-c3cc(C)c(OCC(=O)O)c(C)c3)nc12` [Example 39, {4-[5-(2,5-difluorophenoxy)-7-ethoxy-oxazolo[5,4-d]pyrimidin-2-yl]-2,6-dimethyl-phenoxy}-acetic acid] was tested. Which activation at 10 µM did it give?
The activation at 10 µM was 121%.

With `CCCOc1nc(Oc2ccc(F)c(C(F)(F)F)c2)nc2oc(-c3cc(C)c(OCC(=O)O)c(C)c3)nc12` [Example 74, {4-[5-(4-fluoro-3-trifluoromethylphenoxy)-7-propoxy-oxazolo[5,4-d]pyrimidin-2-yl]-2,6-dimethyl-phenoxy}-acetic acid] as the molecule, how does the activation at 10 µM read?
Its activation at 10 µM is 61%.

Which activation at 10 µM does the source give for `CCCOc1nc(OCC2CCCC2)nc2oc(-c3cc(C)c(OCC(=O)O)c(C)c3)nc12` [Example 18, [4-(5-cyclopentylmethoxy-7-propoxy-oxazolo[5,4-d]pyrimidin-2-yl)-2,6-dimethyl-phenoxy]-acetic acid] here?
Its activation at 10 µM is 83%.

With `CCCOc1nc(Oc2ccc(F)c(Cl)c2)nc2oc(-c3cc(C)c(OCC(=O)O)c(C)c3)nc12` [Example 62, {4-[5-(3-chloro-4-fluorophenoxy)-7-propoxy-oxazolo[5,4-d]pyrimidin-2-yl]-2,6-dimethylphenoxy}-acetic acid] as the molecule, how does the activation at 10 µM read?
The activation at 10 µM was 56%.

For `CCCOc1nc(Oc2ccc3sc(C)nc3c2)nc2oc(-c3cc(C)c(OCC(=O)O)c(C)c3)nc12` [Example 70, {2,6-dimethyl-4-[5-(2-methylbenzothiazol-5-yloxy)-7-propoxy-oxazolo[5,4-d]pyrimidin-2-yl]-phenoxy}-acetic acid], which activation at 10 µM is on record?
The activation at 10 µM was 89%.

`CCCOc1nc(Oc2ccc(Cl)c(F)c2)nc2oc(-c3cc(C)c(OCC(=O)O)c(C)c3)nc12` [Example 64, {4-[5-(4-chloro-3-fluorophenoxy)-7-propoxy-oxazolo[5,4-d]pyrimidin-2-yl]-2,6-dimethylphenoxy}-acetic acid] was tested. Which activation at 10 µM did it give?
The activation at 10 µM was 65%.

For `CCCOc1nc(Oc2cc(C)ccc2F)nc2oc(-c3cc(C)c(OCC(=O)O)c(C)c3)nc12` [Example 45, {4-[5-(2-fluoro-5-methylphenoxy)-7-propoxy-oxazolo[5,4-d]pyrimidin-2-yl]-2,6-dimethylphenoxy}-acetic acid], which activation at 10 µM is on record?
The activation at 10 µM was 67%.

For `CCCOc1nc(Oc2ccccc2)nc2oc(-c3cc(C)c(OCC(=O)O)c(C)c3)nc12` [Example 9, [2,6-dimethyl-4-(5-phenoxy-7-propoxy-oxazolo[5,4-d]pyrimidin-2-yl)-phenoxy]-acetic acid], which activation at 10 µM is on record?
Its activation at 10 µM is 84%.

How did the activation at 10 µM turn out when `CCCOc1nc(Oc2ccc(Cl)cc2F)nc2oc(-c3cc(C)c(OCC(=O)O)c(C)c3)nc12` [Example 59, {4-[5-(4-chloro-2-fluorophenoxy)-7-propoxy-oxazolo[5,4-d]pyrimidin-2-yl]-2,6-dimethyl-phenoxy}-acetic acid] was run?
The activation at 10 µM was 72%.

For `CCCOc1nc(OCCC(C)C)nc2oc(-c3cc(C)c(OCC(=O)O)c(C)c3)nc12` [Example 22, {2,6-dimethyl-4-[5-(3-methyl-butoxy)-7-propoxy-oxazolo[5,4-d]pyrimidin-2-yl]-phenoxy}-acetic acid], which activation at 10 µM is on record?
Its activation at 10 µM is 92%.

For `CCCOc1nc(Oc2cccc(C)c2)nc2oc(-c3cc(C)c(OCC(=O)O)c(C)c3)nc12` [Example 29, [2,6-dimethyl-4-(7-propoxy-5-(3-methylphenoxy)-oxazolo[5,4-d]pyrimidin-2-yl)-phenoxy]-acetic acid], which activation at 10 µM is on record?
Its activation at 10 µM is 75%.

For `CCCOc1nc(OCCC2CC2)nc2oc(-c3cc(C)c(OCC(=O)O)c(C)c3)nc12` [Example 23, {4-[5-(2-cyclopropyl-ethoxy)-7-propoxy-oxazolo[5,4-d]pyrimidin-2-yl]-2,6-dimethyl-phenoxy}-acetic acid], which activation at 10 µM is on record?
Its activation at 10 µM is 98%.

With `CCCOc1nc(Oc2cccc(Cl)c2C)nc2oc(-c3cc(C)c(OCC(=O)O)c(C)c3)nc12` [Example 54, {4-[5-(3-chloro-2-methylphenoxy)-7-propoxy-oxazolo[5,4-d]pyrimidin-2-yl]-2,6-dimethyl-phenoxy}-acetic acid] as the molecule, how does the activation at 10 µM read?
The activation at 10 µM was 107%.

For `CCOc1nc(Oc2cccc(Cl)c2)nc2oc(-c3cc(C)c(OCC(=O)O)c(C)c3)nc12` [Example 38, {4-[5-(3-chlorophenoxy)-7-ethoxy-oxazolo[5,4-d]pyrimidin-2-yl]-2,6-dimethyl-phenoxy}-acetic acid], which activation at 10 µM is on record?
The activation at 10 µM was 55%.

How did the activation at 10 µM turn out when `CCCOc1nc(Oc2cncc(C)c2)nc2oc(-c3cc(C)c(OCC(=O)O)c(C)c3)nc12` [Example 33, {2,6-dimethyl-4-[5-(5-methylpyridin-3-yloxy)-7-propoxy-oxazolo[5,4-d]pyrimidin-2-yl]-phenoxy}-acetic acid] was run?
The activation at 10 µM was 110%.

Which activation at 10 µM does the source give for `CCCOc1nc(Oc2ccc(Cl)c(C(F)(F)F)c2)nc2oc(-c3cc(C)c(OCC(=O)O)c(C)c3)nc12` [Example 78, {4-[5-(4-chloro-3-trifluoromethylphenoxy)-7-propoxy-oxazolo[5,4-d]pyrimidin-2-yl]-2,6-dimethylphenoxy}-acetic acid] here?
The activation at 10 µM was 72%.

How did the activation at 10 µM turn out when `CCCOc1nc(Oc2ccc(F)cc2Cl)nc2oc(-c3cc(C)c(OCC(=O)O)c(C)c3)nc12` [Example 61, {4-[5-(2-chloro-4-fluorophenoxy)-7-propoxy-oxazolo[5,4-d]pyrimidin-2-yl]-2,6-dimethyl-phenoxy}-acetic acid] was run?
The activation at 10 µM was 97%.
